Laboratory results published in PubChem BioAssay AID1963969 (Molecular Pharmacology Branch, DTP, NCI, 2024).
pIC50: −log10 of the molar value.

Tested on: 817829-284-R-J1-PDC multi-cell spheroid viability
Assay: Anticancer human tumor 817829-284-R-J1-PDC patient-derived colon adenocarcinoma cell line growth inhibition [PI3K]
Conditions: for pIC50: curve of first compound; for viability, T/C: stronger effect = lower value; active means viability on the fitted dose curve at most 10% of control; inactive means the rest
From the text: Combinatorial screen of targeted agents with the PI3K inhibitors inavolisib, alpelisib, duvelisib, and copanlisib in multi-cell type tumor spheroids
A high-throughput screen of multi-cell type tumor spheroids was designed to identify active combinations of targeted small molecules and PI3K pathway inhibitors. Complex spheroids include a stromal component modeled by human endothelial cells (HUVEC) and fibroblasts modeled by human mesenchymal stem cells (MSCs). The concentration ranges selected for each drug and investigational agent were based upon clinically achievable concentrations if the clinical Cmax of the agent was known.
Compounds. The drugs and investigational agents: inavolisib (NSC800729), alpelisib (NSC765974), duvelisib (NSC772469), copanlisib (NSC816437), ipatasertib (NSC767898), afuresertib (NSC778305), talazoparib (NSC767125), sapanisertib (NSC764658), selumetinib (NSC741078), tovorafenib (DAY101, NSC766906), vemurafenib (NSC761431), ravoxertinib (NSC781343), sotorasib (NSC818433), MRTX1133 (NSC 836407), abemaciclib (NSC 768073), palbociclib (NSC758247), venetoclax (NSC 766270), SY5609 (NSC837396), enzalutamide (NSC755605), and darolutamide (NSC825331), were obtained from the National Cancer Institute (NCI) Developmental Therapeutics Program Chemical Repository. The FDA-approved anticancer drug set is available from the NCI Developmental Therapeutics Program. […] The stock solutions were prepared in dimethyl sulfoxide (DMSO, Sigma-Aldrich, St. Louis, MO, cat. D2650) at 800-fold the tested concentration and stored at -70 degrees C prior to their use. All drugs and investigational agents were tested over a range starting from a high concentration at or near the clinical Cmax and decreasing in half-log increments. If the clinical Cmax for an agent had not been determined, the highest concentration tested was 10 microM.
Cell Culture. All cells were maintained in an incubator at 37 degrees C and 5% CO2 with 95% humidity. The PDC lines were cultured according to standard operating procedures established by the NCI PDMR (https://pdmr.cancer.gov/sops/default.htm). All PDCs were thawed and cultured in Matrigel-coated flasks prepared with a working solution of 1X Ham's F-12 nutrient mix, without supplementation (Invitrogen, Waltham, MA, cat. 11765054), 100 U/mL penicillin-streptomycin (Invitrogen, cat. 15140122), and 2.5% Matrigel (Corning Inc., Corning, NY, cat. 354248) for the first three passages. The 354836-022-R-J1-PDC, 475296-252-R-J1-PDC, and 997726-040-R-J2-PDC lines were cultured in 6A media, which includes advanced DMEM/F-12 (Thermo Fisher Scientific, cat. 12634028), 10 mM HEPES (Thermo Fisher Scientific, cat. 15630080), 1X GlutaMAX supplement (Thermo Fisher Scientific, cat. 35050061), 0.1 mg/mL primocin (InvivoGen, San Diego, CA, cat. ant-pm-2), 10% defined fetal bovine serum, heat inactivated (HyClone Laboratories Inc., Logan, UT, cat. SH30070.03HI), 50% L-WRN conditioned media (ATCC, cat. CRL-3276), 1.25 mM N-Acetyl-L-cysteine (Sigma-Aldrich, cat. A9165), 10 mM nicotinamide (Sigma-Aldrich, cat. N0636), 1X B-27 supplement (Thermo Fisher Scientific, cat. 17504044), 1X N-2 supplement (Thermo Fisher Scientific, cat. 17502048), and 10 microM Y-27632 dihydrochloride (Tocris Bioscience, Bristol, United Kingdom, cat. 1254). The 624824-186-R-J2-PDC line was cultured in 6C/Colon 1B media, which includes all 6A media components plus 50 ng/mL human EGF recombinant protein (Thermo Fisher Scientific, cat. PHG0311). […]
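Further: spheroids exposed to agents for seven days before readout.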
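Wherever viability, T/C is given: percent of vehicle DMSO control viability which is 100%.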

CC(C)n1nc(-c2ccc3oc(N)nc3c2)c2c(N)ncnc21 + COc1c(OCCCN2CCOCC2)ccc2c3n(c(=NC(=O)c4cnc(N)nc4)nc12)CCN3
> 9.50: pIC50 (second compound 0.1 µM) | pIC50 (second compound 0.316 µM) | pIC50 (second compound 1 µM)
inactive: viability, T/C (second compound 0.00316 µM, first compound 0.000316 µM) 66.8% | viability, T/C (second compound 0.00316 µM, first compound 0.001 µM) 83.7% | viability, T/C (second compound 0.00316 µM, first compound 0.00316 µM) 72.2% | viability, T/C (second compound 0.00316 µM, first compound 0.01 µM) 45.5% | viability, T/C (second compound 0.00316 µM, first compound 0.0316 µM) 42.6% | viability, T/C (second compound 0.00316 µM, first compound 0.1 µM) 17.8% | viability, T/C (second compound 0.01 µM, first compound 0.000316 µM) 44% | viability, T/C (second compound 0.01 µM, first compound 0.001 µM) 83.3% | viability, T/C (second compound 0.01 µM, first compound 0.00316 µM) 67.6% | viability, T/C (second compound 0.01 µM, first compound 0.01 µM) 70.9% | viability, T/C (second compound 0.01 µM, first compound 0.0316 µM) 26.6% | viability, T/C (second compound 0.01 µM, first compound 0.1 µM) 14.4% | viability, T/C (second compound 0.0316 µM, first compound 0.000316 µM) 78.5% | viability, T/C (second compound 0.0316 µM, first compound 0.001 µM) 72.7% | viability, T/C (second compound 0.0316 µM, first compound 0.00316 µM) 45.5% | viability, T/C (second compound 0.0316 µM, first compound 0.01 µM) 46.5% | viability, T/C (second compound 0.0316 µM, first compound 0.0316 µM) 37.7% | viability, T/C (second compound 0.0316 µM, first compound 0.1 µM) 19.6% | viability, T/C (second compound 0.1 µM, first compound 0.000316 µM) 31.9% | viability, T/C (second compound 0.1 µM, first compound 0.001 µM) 31.8% | viability, T/C (second compound 0.1 µM, first compound 0.00316 µM) 38% | viability, T/C (second compound 0.1 µM, first compound 0.01 µM) 31.1% | viability, T/C (second compound 0.1 µM, first compound 0.0316 µM) 26.9% | viability, T/C (second compound 0.1 µM, first compound 0.1 µM) 17% | viability, T/C (second compound 0.316 µM, first compound 0.000316 µM) 21.1% | viability, T/C (second compound 0.316 µM, first compound 0.001 µM) 22.8% | viability, T/C (second compound 0.316 µM, first compound 0.00316 µM) 23.6% | viability, T/C (second compound 0.316 µM, first compound 0.01 µM) 17.7% | viability, T/C (second compound 0.316 µM, first compound 0.0316 µM) 21.8% | viability, T/C (second compound 0.316 µM, first compound 0.1 µM) 18.7%
7.87: pIC50 (second compound 0.00316 µM)
7.79: pIC50 (second compound 0.01 µM)
8.28: pIC50 (second compound 0.0316 µM)
active: viability, T/C (second compound 1 µM, first compound 0.000316 µM) 9.62% | viability, T/C (second compound 1 µM, first compound 0.001 µM) 14% | viability, T/C (second compound 1 µM, first compound 0.00316 µM) 9.7% | viability, T/C (second compound 1 µM, first compound 0.01 µM) 10.8% | viability, T/C (second compound 1 µM, first compound 0.0316 µM) 8.57% | viability, T/C (second compound 1 µM, first compound 0.1 µM) 6.68%
